Patent US20210222208A1, “SUGAR-DERIVED STIMULANT FOR ENHANCEMENT OF AEROBIC AND ANAEROBIC FERMENTATION PERFORMANCE” (priority 2018, published 2021)

System: S. cerevisiae M11205
Type: cell-based, Saccharomyces cerevisiae

Q: For `OCCCCO` [1,4-butanediol], which “Contribution to enhancement at higher sugar concentrations” value is on record?
A: Its value is “no distinct contribution for enhancement”.

Q: And the “Contribution to stimulant properties versus control without addition” value?
A: Its value is “not itself a contributor to the stimulant properties”.

Q: What about the “Day 5 % of Theoretical Max. Ethanol Yield” value of the same compound?
A: The value was 88.8%.

Q: What about the “Effect on fermentation rates” value of the same compound?
A: Its value is “does not create the increased fermentation rates”.
